Read-outs that look alike come from different tables or passages of the source. Residues, ends and D or L forms follow the SMILES beside them.

Usually EC50 stands for the concentration at which the effect is half-maximal. One may read the IC50 as the concentration at which inhibition is half-maximal. The term CC50 denotes the concentration at which the toxic effect on the cells reaches its halfway point.

The test system of series [1] is SARS-CoV-2 virus. To be noted: cited from earlier work.
Series [2] concerns SARS-CoV-2. To be noted: cited from earlier work.
Series [3] deals with T1, SARS-CoV-2 3CL^pro (Severe acute respiratory syndrome coronavirus 2, UniProt P0DTD1). To be noted: cited from earlier work.
The target of series [4] is T1, SARS-CoV-2 3CL^pro. The format is biochemical.
Series [5] concerns SARS-CoV-2 (USA_WA1/2020). Kind of series: SARS-CoV-2 cytopathic effect. The format is cell-based. As to conditions: Vero E6 cells.
Series [6] has as its system Vero E6 cells.

With `CC(C)(C)NC(=O)N[C@H](C(=O)N1C[C@H]2[C@@H]([C@H]1C(=O)NC(CC1CCC1)C(=O)C(N)=O)C2(C)C)C(C)(C)C` (stereo partly shown) [Boceprevir], the “activity in CPE and viral yield reduction assays” value in series [1] is “active in both CPE and viral yield reduction assays”. Moreover, the EC50 in series [1] (read-out: EC50 against SARS-CoV-2 virus infection in the CPE assay) is 1.9 µM.

As for `O=c1c2ccccc2[se]n1-c1ccccc1` [ebselen], in series [2], the “antiviral activity in viral RNA quantification and plaque-reduction assays” value is “strongest antiviral activity”.

In the case of `Cc1cc(C(=O)N[C@@H](C)C(=O)N[C@H](C(=O)N[C@@H](CC(C)C)C(=O)NC(/C=C/C(=O)OCc2ccccc2)C[C@@H]2CCNC2=O)C(C)C)no1` (stereo partly shown) [N3], the “antiviral activity in viral RNA quantification and plaque-reduction assays” value in series [2] is “strongest antiviral activity”.

Take `Cc1cccc(C)c1OCC(=O)N[C@@H](Cc1ccccc1)[C@@H](O)C[C@H](Cc1ccccc1)NC(=O)[C@H](C(C)C)N1CCCNC1=O` [Lopinavir]: in series [3], the “inhibition of 3CL^pro” value is reported as “did not show inhibition”.

Consider `CCCC(NC(=O)C(CC(C)C)NC(=O)OCc1ccccc1)C(=O)C(=O)NCc1ccccn1` (stereo not shown) [calpain inhibitor XII], for which the “activity in CPE and viral yield reduction assays” value in series [1] was “active in both CPE and viral yield reduction assays”.

For `CSCC[C@@H](C=O)NC(=O)[C@H](CC(C)C)NC(=O)[C@H](CC(C)C)NC(C)=O` [calpain inhibitor II] (Ac-Leu-Leu-Met-aldehyde), the “activity in CPE and viral yield reduction assays” value in series [1] is “active in both CPE and viral yield reduction assays”.

As to `Cc1ccc(C(=O)Nc2ccc(S(=O)(=O)O)c3cc(S(=O)(=O)O)cc(S(=O)(=O)O)c23)cc1NC(=O)c1cccc(NC(=O)Nc2cccc(C(=O)Nc3cc(C(=O)Nc4ccc(S(=O)(=O)O)c5cc(S(=O)(=O)O)cc(S(=O)(=O)O)c45)ccc3C)c2)c1` [suramin sodium], the “3CL^pro inhibition max resp” value in series [4] (Table 1 compounds) is on record as 99.49%. For the same compound, in series [5], the “activity in CPE assay” value is given as “neither effective in CPE assay”. For the same compound, in series [5] (72 h, Table 1 compounds), the “SARS-CoV-2 CPE efficacy” value is given as 0%. Besides, the “cytotoxicity to Vero E6 cells” value in series [6] (African green monkey) is given as “nor cytotoxic to Vero E6 cells”. For the same compound, the “Vero E6 cytotoxicity efficacy” value in series [6] (no virus, Table 1 compounds) is reported as 0%.

For `CC(C)c1nc(CN(C)C(=O)N[C@H](C(=O)N[C@@H](Cc2ccccc2)C[C@H](O)[C@H](Cc2ccccc2)NC(=O)OCc2cncs2)C(C)C)cs1` [ritonavir], the “inhibition of 3CL^pro” value in series [3] is given as “did not show inhibition”.

For `CC1(C)CCC2=C(O1)c1ccccc1C(=O)C2=O` [beta-lapachone], the “3CL^pro inhibition max resp” value in series [4] (Table 1 compounds) turned out to be 60.88%. Besides, the “SARS-CoV-2 CPE efficacy” value in series [5] (72 h, Table 1 compounds) was 0%. Also, the “Vero E6 cytotoxicity efficacy” value in series [6] (no virus, Table 1 compounds) is 15.06%.

In the case of `O=C1c2ccccc2-[n+]2ccc3c([nH]c4ccccc43)c21` [fascaplysin], the “3CL^pro inhibition max resp” value in series [4] (Table 1 compounds) is 63.44%. Further, in series [5] (72 h, Table 1 compounds), the “SARS-CoV-2 CPE efficacy” value came to 0%. The “Vero E6 cytotoxicity efficacy” value in series [6] (no virus, Table 1 compounds) was found to be 99.28%.

Consider `O=C(O)Cc1cccc(OCCCN(Cc2cccc(C(F)(F)F)c2Cl)CC(c2ccccc2)c2ccccc2)c1` [GSK-3965], for which the “3CL^pro inhibition max resp” value in series [4] turned out to be 108.24%. Also, the concentration for half-maximal inhibition (IC50) in series [4] (read-out: 3CL^pro inhibition IC50) amounted to 21.5 µM. For the same compound, in series [5] (Table 2 quenching compounds), the “SARS-CoV-2 CPE efficacy” value came to 22.51%. Moreover, the “Vero E6 cytotoxicity efficacy” value in series [6] (Table 2 quenching compounds) came out at 82.34%. Further, in series [6] (read-out: Vero E6 cytotoxicity CC50, Table 2 quenching compounds), the CC50 is 14.1 µM.

Consider `CCCCCCCCCCCCCCCc1cccc(O)c1C(=O)O` [anacardic acid], for which the “3CL^pro inhibition max resp” value in series [4] (Table 2, compounds with partial fluorescence quenching effect) was 105.9%. The “SARS-CoV-2 CPE efficacy” value in series [5] (Table 2 quenching compounds) worked out at 89.62%. For the same compound, the EC50 in series [5] (read-out: SARS-CoV-2 CPE EC50, Table 2 quenching compounds) turned out to be 3.98 µM. For the same compound, the “Vero E6 cytotoxicity efficacy” value in series [6] (Table 2 quenching compounds) turned out to be 72.92%.

The values are drawn from publication PMC7507806 (ACS Pharmacology & Translational Science, 2020).
